Measurements as given in patent publication US10376553B2, “Pharmaceutical composition for preventing and treating chronic obstructive lung disease containing, as active ingredient, Magnoliae flos extract, fraction, or active fraction thereof” (KOREA RESEARCH INSTITUTE OF BIOSCIENCE AND BIOTECHNOLOGY, priority 2015, dated 2019).

Assays:
H292 cells = test: Cytotoxicity (CCK-8 cell viability) of the compounds of Magnoliae flos in H292 cells; type: cell-based, human; settings: 24 h, vs 0.2% DMSO control = 100%
Description: Then, 10 μl of the CCK-8 solution (Dojindo Laboratories, Japan) was mixed with 90 μl of the medium, and 100 μl thereof was added per well. After incubation for a minimum of 30 minutes to a maximum of 4 hours, the absorbance was measured at 570 nm. The cell viability was calculated according to the following Equation 2 with a negative control group treated with 0.2% DMSO as a reference of 100%.
Cell viability=(Compound treated OD 570 nm value)×100/(Negative control group OD 570 nm value) [Equation 2]

MUC5AC protein = test: Inhibition of MUC5AC protein production (immunoassay) by the compounds; type: cell-based, human; settings: for MUC5AC secretion (Relative amount to TNF-α treated group, %) / Inhibition rate (%): TNF-α 20 ng/mL; for Inhibition rate (%): MUC5AC secretion; for production of MUC5AC (in words): vs TNF-α treated group = 100%
Description: For immunoassay of the resulting MUC5AC, the supernatant (50 uL) recovered was dispensed on to a 96-well plate and dried in a thermostat set at 50° C. It was washed with PBS supplemented with 1% BSA and reacted with an MUC5AC antibody (abcam, USA) at room temperature for 1 hour. A secondary antibody was dispensed thereto for reaction for 1 hour. It was washed again and then reacted with a 3,3′,5,5′-tetramethylbenzidine peroxide solution for 20 minutes. After the reaction was stopped with a sulfuric acid solution, the degree of color development was measured at 450 nm.
As a result, as shown in the following Table 6, the amount of MUCSAC secretion increased in the group treated with TNF-α.

MUC5AC promoters = test: MUC5AC promoter luciferase reporter assay in H292 cells; type: cell-based, human; settings: Table 7, MUC5AC promoter luciferase reporter, 10 μM, TNF-α 20 ng/mL
Excerpt: The degree of activation of luciferase was confirmed using a One-glow Luciferase Assay System (Promega).
As a result, as shown in the following Table 7, the activity of the MUC5AC promoters increased in the group treated with TNF-α.

[1] = test system: inflammatory cells in the bronchoalveolar lavage fluid; test: Inflammatory cells in bronchoalveolar lavage fluid of the COPD mouse model (cigarette smoke + LPS); type: in vivo, C57BL/6N mice; settings: BALF, vs COPD-induced group
Description: Six-week-old male SPF (specific pathogen-free) C57BL/6N mice (22 to 24 g) were supplied by Koatech (Korea). These animals were fed with a sufficient amount of solid feed (no antibiotics, Samyang Feed Co.) and water until the day of the experiment. They were allowed to adapt for 1 week in a light-dark cycle environment at a temperature of 22±2° C. and a humidity of 55±15%, and then subjected to the experiment.
The animal model was exposed to cigarette smoke to induce chronic obstructive pulmonary disease. 3R4F Kentuchy Reference Cigarettes as standard cigarettes for use to generate cigarette smoke were supplied by University of California (USA). The standard cigarettes contain 9.4 mg of tar, 11 mg of total particle matter (TPM), and 12 mg of carbon monoxide per 1 cigarette. The standard cigarettes were used after harmonization for 48 hours to 72 hours at a temperature of 22±1° C. and a humidity of 60±2%. Further, Cigarette Smoke Generator manufactured by Korea BioLink (Korea) was used for exposure to cigarette smoke. Cigarette smoke was inhaled for 1 hour (8 pcs/hour) for 7 days from 1 hour after oral administration of a sample. 10 μg of LPS (lipopolysaccharide) in PBS 50 μL was injected intranasally to each mouse on the 4th day of the experiment after the mouse was anesthetized with zoletyl 1 hour before the exposure to cigarette smoke. The smoking condition was 8 puffs per 1 standard cigarette (volume: 45 mL, duration: 2 seconds, and interval: 1 time/min).
The active fraction of Magnoliae flos (15, 30 mg/kg) and roflumilast (10 mg/kg) as therapeutic substances were dissolved in 0.5% sodium carboxymethyl cellulose and were orally administered 1 hour before the exposure to cigarette smoke.
The experimental groups were divided into (i) normal control (NC) group; (ii) cigarette smoke+LPS exposure group (COPD); (iii) experimental group administered with roflumilast (ROF) (10 mg/kg, p.o) 1 hour before the exposure to cigarette smoke+LPS; and (iv) experimental group administered with the active fraction of Magnoliae flos (15, 30 mg/kg, p.o; Magnoliae flos 15 and Magnoliae flos 30) 1 hour before the exposure to cigarette smoke+LPS. […] Then, they were administered in the same manner as above.
The bronchial alveolar lavage fluid was separated from the animal model treated with the active fraction and the compounds of Magnoliae flos in <Test Example 6-2> above in the following manner, and the number of inflammatory cells was measured.
Specifically, a mouse sonde was inserted into the bronchial tube, a 1 mL syringe containing 0.7 mL of DPBS (Dulbecco's Phosphate-Buffered Saline) was connected thereto, and DPBS was injected into the lung. The injected DPBS was recovered, and this procedure was repeated twice. The bronchoalveolar lavage fluid separated by DPBS was centrifuged at 1,500 rpm for 15 minutes to make a cell pellet. The supernatant was stored frozen at −70° C. for cytokine analysis. Each cell obtained was suspended in DPBS, attached to a slide glass using a cytospin centrifuge, and Diff-Quik stained. The number of inflammatory cells in each sample was counted through microscopic examination, and the inhibition rate was calculated according to the following Equation 3.
Inhibition rate=(Value of COPD-induced group−value of target substance administered group)×100/(Value of COPD-induced group) [Equation 3]

reactive oxygen species = test: Production of active oxygen species in BALF of the COPD model (DCF-DA); type: in vivo, C57BL/6N mice; settings: for rate of inhibiting reactive oxygen compared with ROF drug control group (in words): 30 mg/kg
Description: Production of active oxygen species in the bronchoalveolar lavage fluid obtained in <Test Example 6-3> above was confirmed by the following method.
Specifically, the separated BALF (200 μL) was treated to the final concentration of 20 μM of DCF-DA (dihydrodichlorofluorescein diacetate, Sigma-Aldrich, USA), followed by culturing for 30 minutes and measurement using Fluorescence (Molecular Device, USA). The inhibition rate was calculated by Equation 3 above.

IL-6 = IL-6 level in BALF of the COPD model (ELISA); type: in vivo, C57BL/6N mice; settings: vs COPD-induced group; for IL-6 inhibition rate (%): BALF
Description: (§1) Cytokines were measured in the cell supernatant obtained in <Test Example 6-3> above by the following method. Specifically, the levels of IL-6 (R & D System, USA) and TNF-α (BD Bioscience, USA) in the separated BALF were measured by enzyme-linked immuno-sorbent assay (ELISA). Each cytokine analysis was carried out according to the manufacturer's test method.

TNF-α = TNF-α level in BALF of the COPD model (ELISA); type: in vivo, C57BL/6N mice; settings: vs COPD-induced group; for TNF-α inhibition rate (%): BALF
Description: as §1

[2] = 15 mg/kg p.o., vs COPD-induced group
[3] = 30 mg/kg p.o., vs COPD-induced group

SMILES | Viability of H292 cells (%, average ± deviation) (H292 cells; 2.5 μM) [%] | Viability of H292 cells (%, average ± deviation) (H292 cells; 5 μM) [%] | Viability of H292 cells (%, average ± deviation) (H292 cells; 10 μM) [%] | Inhibition rate (%) (MUC5AC protein; 2.5 μM) | Inhibition rate (%) (MUC5AC protein; 5 μM) | Inhibition rate (%) (MUC5AC protein; 10 μM) | production of MUC5AC (in words) (MUC5AC protein) | Inhibition rate (%) (MUC5AC promoters) | Inhibition rate of inflammatory cell infiltration (%) Macrophage ([1]; 15 mg/kg p.o.) [%] | Inhibition rate of inflammatory cell infiltration (%) Neutrophil ([1]; 15 mg/kg p.o.) [%] | Inhibition rate of inflammatory cell infiltration (%) Total inflammatory cells ([1]; 15 mg/kg p.o.) [%] | Inhibition rate of inflammatory cell infiltration (%) Macrophage ([1]; 30 mg/kg p.o.) [%] | Inhibition rate of inflammatory cell infiltration (%) Neutrophil ([1]; 30 mg/kg p.o.) [%] | Inhibition rate of inflammatory cell infiltration (%) Total inflammatory cells ([1]; 30 mg/kg p.o.) [%] | Active oxygen inhibition rate (%) (reactive oxygen species; [2]) | Active oxygen inhibition rate (%) (reactive oxygen species; [3]) | IL-6 inhibition rate (%) (IL-6; 15 mg/kg p.o.) | IL-6 inhibition rate (%) (IL-6; 30 mg/kg p.o.) | TNF-α inhibition rate (%) (TNF-α; 15 mg/kg p.o.) | TNF-α inhibition rate (%) (TNF-α; 30 mg/kg p.o.) | also measured
COc1ccc([C@H]2OC[C@H]3[C@@H]2CO[C@@H]3c2cc(OC)c(OC)c(OC)c2)cc1OC [Compound S2, magnolin] | 121.81 ± 2.42 | 119.94 ± 2.81 | 118.37 ± 2.55 | 2.43 | 18.83 | 34.33 | inhibited in a manner depending on the concentrations | 55.2 | 21.6 ± 6.3 | 47.2 ± 3.6 | 44.7 ± 3.9 | 10.7 ± 9.8 | 31.0 ± 7.1 | 30.7 ± 5.3 | 21.8 ± 4.4 | 14.0 ± 8.3 | 64.9 ± 4.8 | 36.6 ± 8.9 | 29.2 ± 4.8 | 31.0 ± 7.2 | Viability of H292 cells (%, average ± deviation) (H292 cells; 20 μM): 112.99 ± 4.16%; MUC5AC secretion (Relative amount to TNF-α treated group, %) (MUC5AC protein; 2.5 μM): 97.57 ± 0.78%; MUC5AC secretion (Relative amount to TNF-α treated group, %) (MUC5AC protein; 5 μM): 81.17 ± 0.82%; MUC5AC secretion (Relative amount to TNF-α treated group, %) (MUC5AC protein; 10 μM): 65.67 ± 0.99%; production of MUC5AC (in words) (MUC5AC protein; listed as Formula 3): inhibited the production of MUC5AC in a manner depending on concentration; MUC5AC secretion (Relative amount to TNF-α treated group, %) (MUC5AC promoters): 44.8 ± 7.33%; rate of inhibiting reactive oxygen compared with ROF drug control group (in words) (reactive oxygen species): higher rates of inhibiting reactive oxygen than that of the drug control group treated with ROF
COc1cc([C@H]2OC[C@H]3[C@@H]2CO[C@@H]3c2cc(OC)c(OC)c(OC)c2)cc(OC)c1OC [Compound S3, dimethylliroresinol] | 100.55 ± 1.26 | – | – | 2.5 | 29.38 | 30.34 | inhibited in a manner depending on the concentrations | 56.27 | 19.4 ± 5.4 | 17.9 ± 6.6 | 23.3 ± 5.5 | 33.2 ± 6.2 | 42.1 ± 3.9 | 43.5 ± 3.4 | 15.1 ± 4.7 | 32.5 ± 3.1 | 45.9 ± 6.2 | 43.9 ± 6.5 | 26.7 ± 7.0 | 41.7 ± 4.4 | production of MUC5AC (in words) (MUC5AC protein; listed as Formula 4): inhibited the production of MUC5AC in a manner depending on concentration; increase in inflammatory cells (in words) [1]: effectively inhibited; production of active oxygen species (in words) (reactive oxygen species; 15 and 30 mg/kg, vs COPD-induced group): relatively higher inhibition rates in a manner depending on concentration; TNF-α secretion in the bronchoalveolar lavage fluid (in words) (TNF-α): concentration-dependent inhibition
COc1ccc([C@H]2OC[C@H]3[C@@H]2CO[C@H]3c2cc(OC)c(OC)c(OC)c2)cc1OC [Compound S4, epimagnolin] | 99.81 ± 2.15 | 100.74 ± 2.84 | 99.45 ± 1.53 | 9.45 | 25.76 | 36.29 | inhibited in a manner depending on the concentrations | 63.2 | 0.0 ± 0.0 | 13.8 ± 4.9 | 14.0 ± 5.1 | 21.4 ± 6.5 | 25.7 ± 5.5 | 29.1 ± 4.4 | 13.5 ± 4.3 | 15.9 ± 4.2 | 0.0 ± 0.0 | 40.3 ± 3.7 | 13.8 ± 5.5 | 24.7 ± 6.5 | Viability of H292 cells (%, average ± deviation) (H292 cells; 20 μM): 97.20 ± 1.99%; MUC5AC secretion (Relative amount to TNF-α treated group, %) (MUC5AC protein; 2.5 μM): 90.55 ± 2.59%; MUC5AC secretion (Relative amount to TNF-α treated group, %) (MUC5AC protein; 5 μM): 74.24 ± 2.83%; MUC5AC secretion (Relative amount to TNF-α treated group, %) (MUC5AC protein; 10 μM): 63.71 ± 1.27%; production of MUC5AC (in words) (MUC5AC protein; listed as Formula 5): inhibited the production of MUC5AC in a manner depending on concentration; MUC5AC secretion (Relative amount to TNF-α treated group, %) (MUC5AC promoters): 36.8 ± 6.97%; rate of inhibiting reactive oxygen compared with ROF drug control group (in words) (reactive oxygen species): higher rates of inhibiting reactive oxygen than that of the drug control group treated with ROF; IL-6 in the bronchoalveolar lavage fluid (in words) (IL-6): concentration-dependent decrease; TNF-α secretion in the bronchoalveolar lavage fluid (in words) (TNF-α): concentration-dependent inhibition
